PMC5587642, “A Novel Benzocoumarin-Stilbene Hybrid as a DNA ligase I inhibitor with in vitro and in vivo anti-tumor activity in breast cancer models” (Scientific Reports, 2017)

Legend:
[1] = test system: MDA-MB-231 cells; assay: Clonogenic survival assay; type: cell-based, human; conditions: 0.75, 1.5 and 3 µM; 24 and 48 h treatment
Method: Clonogenic survival assay was performed as described previously[16] with modifications. MDA-MB-231 cells (100 cells) were seeded in 12 well plates for 24 h. Cells were then treated with different concentrations of compound 19 (0.75, 1.5 and 3 µM) for 24 and 48 h. After drug treatment, culture medium was replaced with fresh medium and cells were cultured for another 10 days. After 10 days, the cells were washed with PBS carefully and stained with a solution containing 6% glutaraldehyde and 0.5% crystal violet.

[2] = test system: MDA-MB-231 cells; assay: Scratch (migration) assay; type: cell-based, human; conditions: 3 and 6 µM; 12 and 24 h
Method: The migration capacity of highly metastatic human breast cancer MDA-MB-231 cells was assessed by in-vitro scratch assay as described previously[36] with some modifications. Briefly, cells were plated in 12 well plates and a scratch was created by scraping the cells with a sterile 10 μL pipet tip in the middle of the culture well. After removal of cellular debris, the cells were treated with different concentrations of the test compound. Images of the wound area were captured at 0, 12 and 24 h post-treatment. Wound area was measured by TScratch software and data were expressed as percent (%) open area of control and treated cells.

[3] = In-vivo pharmacokinetic study; set-up: species or system Sprague Dawley (SD) rats; conditions: rat
Method: Male Sprague Dawley (SD) rats weighing 200–220 g were obtained from the Laboratory of Animal Division of CSIR-CDRI (Lucknow, India). Animals were kept in well ventilated cages in hygienic conditions at room temperature (24 ± 2 °C), 40–60% relative humidity and 12 h light-dark cycle. The animals were acclimatized for a minimum period of 3 days prior to the experiments. Pharmacokinetic study was conducted according to protocol approved by the CSIR-CDRI Institutional Animal Ethic Committee (IAEC approval no. IAEC/2012/91). Compound 19 was dissolved in DMSO:Poly Ethylene Glycol-400: 0.9%w/v saline in the ratio of 1:1:2 and was intravenously administered at the dose of 5 mg/kg to each rat (n = 6). The rats were kept on fasting overnight with water alone for oral pharmacokinetic studies. Compound 19 was dissolved in DMSO:Poly Ethylene Glycol-400: 0.5% w/v Sodium carboxymethyl cellulose in TDW in the ratio of 3:1:4 and was orally administered at the dose of 50 mg/kg to each rat (n = 6). Blood samples were collected in microcentrifuge tubes for each time point at 0.083, 0.167, 0.333, 0.5, 0.75, 1.0, 2.0, 4.0, 6.0, 8.0, 10.0, 12.0, 24.0, 48.0 and 72 h post dosing. The blood samples were collected after light ether anesthesia from the retro-orbital plexus of rats using heparin as anticoagulant. Plasma was separated after centrifugation at 5000 rpm for 10 min and all the samples were stored at −80 °C until analysis. Rat plasma samples were processed using liquid-liquid extraction. 100 µL aliquot of plasma mixed with 150 µL of acetonitrile and 100 µL of 5 mM NaHCO3 solution was added and vortexed to mix well. In each sample, 2.5 mL of tert-Butyl methyl ether (TBME) (extraction solvent) was added and vortexed for 10 min at 2500 rpm on vibramax (Heidolph, Schwabach, Germany) followed by centrifugation (Eppendorf, Hamburg, Germany) at 5,000 rpm for 5 min. An aliquot of 2.0 mL of supernatant organic layer was separated and evaporated on vacuum concentrator (Thermo scientific, Asheville, USA) to complete dryness. The residue was reconstituted with 100 µL of mobile phase and injected into the LC-MS/MS system for analysis. The plasma samples ([…]) were assayed along with calibration standards and QC samples and the levels of compound 19 was calculated using Analyst software. The pharmacokinetic profile and parameters were evaluated by non-compartmental model approach using Pheonix 6.3 WinNonlin (Pharsight corporation, USA) including t1/2, elimination half-life; Cmax, maximum plasma concentration; tmax, time to reach maximum plasma concentration; AUC0-t, area under concentration curve from zero to last time point.

[4] = test system: plasmid DNA (pUC18); assay: DNaseI cleavage protection assay; type: binding; conditions: up to 500 µM
Method: We performed DNaseI cleavage assay as described in our previous study. Briefly, 100 ng of plasmid DNA (pUC18) was incubated with 100 µM concentration of doxorubicin (a known DNA intercalator), DAPI (DNA minor groove binder), methyl green (DNA major groove binder) and compound 19 (at 250 and 500 µM concentrations) for 30 min at 37 °C in an incubation buffer similar to ligation buffer. After incubation, the DNA was cleaved by adding 0.0025U of DNaseI in each reaction mixture for 5 min at 37 °C and the reactions were stopped by adding stop buffer which contained 7 M Urea, 20 mM Tris-Cl (pH. 7.5), 50 mM EDTA, 20% glycerol and Bromophenol blue. The samples were resolved on 1% agarose gel and visualized under UV transilluminator and image taken with GE Image quant LAS4010.

[5] = male, Sprague Dawley, plasma, iv, I.V route, 5 mg/kg
[6] = male, Sprague Dawley, plasma, oral route, 50 mg/kg

What does the source list for COc1cc(/C=C/c2cc(=O)oc3c2ccc2ccccc23)cc(OC)c1 [Compound 19, (E)-4-(3,5-dimethoxystyryl)-2H-benzo[h]chromen-2-one]?
Colony forming ability [1]: inhibited colony forming ability of cells; Cell migration (percent open area) [2]: significantly inhibit the cell migration; Cmax ([3]; male, Sprague Dawley, iv, I.V route, 5 mg/kg, plasma concentration at 5 min): 325 ± 102 ng/mL; AUC(0-t) [3, 5]: 457 ± 131 ng·h/mL; half-life [3, 5]: 19.2 ± 11.8 h; bioavailability ([3]; male, Sprague Dawley, plasma, oral 50 mg/kg versus I.V 5 mg/kg, read-out: Bioavailability (%F)): 7.85 ± 0.65%; AUC(0-t) [3, 6]: 342 ± 18.6 ng·h/mL; Cmax [3, 6]: 13.4 ± 2.92 ng/mL; Tmax [3, 6]: 0.5 h; half-life [3, 6]: 22.8 ± 4.69 h; Time up to which plasma concentrations are detectable ([3]; after oral dosing, 50 mg/kg): up to 72 h; Protection of DNA from cleavage by DNase I (DNA binding) [4]: no protection from cleavage by DNase I
